According to patent US7884127B2, “Inhibitors of cyclin dependent kinases and their use” (Pirimal Life Sciences Ltd., priority 2002, dated 2011):

`Cc1ccc(Cl)c(-c2cc(=O)c3c(O)cc(O)c([C@@H]4CCN(C)[C@H]4CO)c3o2)c1` [Example 38, (+)-trans-2-(2-Chloro-5-methyl-phenyl)-5,7-dihydroxy-8-(2-hydroxymethyl-1-methyl-pyrrolidin-3-yl)-chromen-4-one] gave a melting point of 206 to 208 °C. Compound `CN1CC[C@@H](c2c(O)cc(O)c3c(=O)cc(-c4ccccc4Cl)oc23)[C@@H]1CS` (racemic) [Example 115, (±)-trans-2-(2-Chloro-phenyl)-5,7-dihydroxy-8-(2-mercaptomethyl-1-methyl-pyrrolidin-3-yl)-chromen-4-one] has a melting point of 205 to 206 °C. `CN1CC[C@@H](c2c(O)cc(O)c3c(=O)cc(-c4ccc([N+](=O)[O-])cc4)oc23)[C@@H]1CO` [Example 92, (+)-trans-5,7-Dihydroxy-8-(2-hydroxymethyl-1-methyl-pyrrolidin-3-yl)-2-(4-nitro-phenyl)-chromen-4-one] gave a melting point of 275 to 277 °C. `COc1cc(OC)c2c(=O)cc(-c3ccccc3Cl)oc2c1[C@@H]1CCN(C)[C@H]1CO` [Example 13, (+)-trans-2-(2-Chloro-phenyl)-8-(2-hydroxymethyl-1-methyl-pyrrolidin-3-yl)-5,7-dimethoxy-chromen-4-one] showed a melting point of 91 to 93 °C. Work on `CN1CC[C@@H](c2c(O)cc(O)c3c(=O)cc(-c4cc(F)ccc4Cl)oc23)[C@@H]1CO.CS(=O)(=O)O` (racemic) [Example 25, (±)-trans-2-(2-Chloro-5-fluoro-phenyl)-5,7-dihydroxy-8-(2-hydroxymethyl-1-methyl-pyrrolidin-3-yl)-chromen-4-one methane sulfonate] yielded a melting point of 192 to 193 °C. Compound `CN1CC[C@@H](c2c(O)cc(O)c3c(=O)cc(-c4ccccc4)oc23)[C@@H]1CO` [Example 57, (+)-trans-5,7-Dihydroxy-8-(2-hydroxymethyl-1-methyl-pyrrolidin-3-yl)-2-phenyl-chromen-4-one] has a melting point of 212 to 215 °C. With `CN1CC[C@@H](c2c(O)cc(O)c3c(=O)cc(-c4cccs4)oc23)[C@@H]1CO` [Example 68, (+)-trans-5,7-Dihydroxy-8-(2-hydroxymethyl-1-methyl-pyrrolidin-3-yl)-2-thiophen-2-yl-chromen-4-one] the melting point was 218 to 220 °C. With `COc1cc(OC)c2c(=O)cc(-c3ccccc3Cl)oc2c1[C@@H]1CCN(C)[C@H]1C(=O)O` (racemic) [Example 143, (±)-trans-3-[2-(2-Chloro-phenyl)-5,7-dimethoxy-4-oxo-4H-chromen-8-yl]-1-methyl-pyrrolidine-2-carboxylic acid] the melting point was 165 to 167 °C. For `COc1cc(OC)c2c(=O)cc(-c3ccc(C#N)cc3)oc2c1[C@@H]1CCN(C)[C@H]1CO` (racemic) [Example 81, (±)-trans-4-[8-(2-Hydroxymethyl-1-methyl-pyrrolidin-3-yl)-5,7-dimethoxy-4-oxo-4H-chromen-2-yl]-benzonitrile], the melting point was 214 to 216 °C. `CN1CC[C@@H](c2c(O)cc(O)c3c(=O)cc(-c4cccc(F)c4Cl)oc23)[C@@H]1CO` [Example 134, (+)-trans-2-(2-Chloro-3-fluoro-phenyl)-5,7-dihydroxy-8-(2-hydroxymethyl-1-methyl-pyrrolidin-3-yl)-chromen-4-one] gave a melting point of 221 to 223 °C. In the case of `CN1CC[C@@H](c2c(O)cc(O)c3c(=O)cc(-c4cccnc4Cl)oc23)[C@@H]1CO` [Example 90, (+)-trans-2-(2-Chloro-pyridin-3-yl)-5,7-dihydroxy-8-(2-hydroxymethyl-1-methyl-pyrrolidin-3-yl)-chromen-4-one], the melting point is reported as 125 to 127 °C. Compound `COc1cc(OC)c2c(=O)cc(-c3ccccc3Cl)oc2c1[C@@H]1CCN(C)[C@H]1CO` (racemic) [Example 7, (±)-trans-2-(2-Chloro-phenyl)-8-(2-hydroxymethyl-1-methyl-pyrrolidin-3-yl)-5,7-dimethoxy-chromen-4-one] has a melting point of 95 to 97 °C. With `CN1CC[C@@H](c2c(O)cc(O)c3c(=O)cc(-c4ccc(C(F)(F)F)cc4)oc23)[C@@H]1CO` (racemic) [Example 63, (±)-trans-5,7-Dihydroxy-8-(2-hydroxymethyl-1-methyl-pyrrolidin-3-yl)-2-(4-trifluoromethyl-phenyl)-chromen-4-one] the melting point was 238 °C. For `CN1CC[C@@H](c2c(O)cc(O)c3c(=O)cc(-c4cc(F)ccc4Cl)oc23)[C@@H]1CO` (racemic) [Example 23, (±)-trans-2-(2-Chloro-5-fluoro-phenyl)-5,7-dihydroxy-8-(2-hydroxymethyl-1-methyl-pyrrolidin-3-yl)-chromen-4-one], the melting point was 253 to 254 °C. In the case of `CN1CC[C@@H](c2c(O)cc(O)c3c(=O)cc(-c4ccccc4O)oc23)[C@@H]1CO` (racemic) [Example 96, (±)-trans-5,7-Dihydroxy-8-(2-hydroxymethyl-1-methyl-pyrrolidin-3-yl)-2-(2-hydroxy-phenyl)-chromen-4-one], the melting point is reported as 212 to 213 °C. `CN1CC[C@@H](c2c(O)cc(O)c3c(=O)cc(-c4ccc(O)cc4Cl)oc23)[C@@H]1CO` (racemic) [Example 104, (±)-trans-2-(2-Chloro-4-hydroxy-phenyl)-5,7-dihydroxy-8-(2-hydroxymethyl-1-methyl-pyrrolidin-3-yl)-chromen-4-one] gave a melting point greater than 300 °C. `CN1CC[C@@H](c2c(O)cc(O)c3c(=O)cc(-c4cc(Cl)ccc4Br)oc23)[C@@H]1CO` [Example 140, (+)-trans-2-(2-Bromo-5-chloro-phenyl)-5,7-dihydroxy-8-(2-hydroxymethyl-1-methyl-pyrrolidin-3-yl)-chromen-4-one] gave a melting point of 233 to 235 °C. `CN1CC[C@@H](c2c(O)cc(O)c3c(=O)cc(-c4ccccc4Cl)oc23)[C@@H]1Cn1ccnc1` (racemic) [Example 113, (±)-trans-2-(2-Chloro-phenyl)-5,7-dihydroxy-8-(2-imidazol-1-ylmethyl-1-methyl-pyrrolidin-3-yl)-chromen-4-one] gave a melting point of 249 to 250 °C. For `CNc1ccc(Cl)c(-c2cc(=O)c3c(O)cc(O)c([C@@H]4CCN(C)[C@H]4CO)c3o2)c1` (racemic) [Example 102, (±)-trans-2-(2-Chloro-5-methylamino-phenyl)-5,7-dihydroxy-8-(2-hydroxymethyl-1-methyl-pyrrolidin-3-yl)-chromen-4-one], the melting point was 208 to 210 °C. In the case of `CN1CC[C@@H](c2c(O)cc(O)c3c(=O)cc(-c4cccc(F)c4)oc23)[C@@H]1CO` [Example 76, (+)-trans-2-(3-Fluoro-phenyl)-5,7-dihydroxy-8-(2-hydroxymethyl-1-methyl-pyrrolidin-3-yl)-chromen-4-one], the melting point is reported as 218 to 220 °C. Work on `CCCN1CC[C@@H](c2c(O)cc(O)c3c(=O)cc(-c4ccccc4Cl)oc23)[C@@H]1CO` (racemic) [Example 132, (±)-trans-2-(2-Chloro-phenyl)-5,7-dihydroxy-8-(2-hydroxymethyl-1-propyl-pyrrolidin-3-yl)-chromen-4-one] yielded a melting point of 94 to 96 °C. `CN1CC[C@@H](c2c(O)cc(O)c3c(=O)cc(-c4ccc(C#N)cc4Cl)oc23)[C@@H]1CO` [Example 98, (+)-trans-3-Chloro-4-[5,7-dihydroxy-8-(2-hydroxymethyl-1-methyl-pyrrolidin-3-yl)-4-oxo-4H-chromen-2-yl]-benzonitrile] showed a melting point of 237 to 239 °C. In the case of `CN1CC[C@@H](c2c(O)cc(O)c3c(=O)cc(-c4cccc(F)c4Br)oc23)[C@@H]1CO` [Example 136, (+)-trans-2-(2-Bromo-3-fluoro-phenyl)-5,7-dihydroxy-8-(2-hydroxymethyl-1-methyl-pyrrolidin-3-yl)-chromen-4-one], the melting point is reported as 237 to 239 °C. For `CN1CC[C@@H](c2c(O)cc(O)c3c(=O)cc(-c4ccc([N+](=O)[O-])cc4Br)oc23)[C@@H]1CO` [Example 42, (+)-trans-2-(2-Bromo-4-nitro-phenyl)-5,7-dihydroxy-8-(2-hydroxymethyl-1-methyl-pyrrolidin-3-yl)-chromen-4-one], the melting point was 186 °C. `CN1CC[C@@H](c2c(O)cc(O)c3c(=O)cc(-c4ccccc4Cl)oc23)[C@@H]1C(=O)O` (racemic) [Example 144, (±)-trans-3-[2-(2-Chloro-phenyl)-5,7-dihydroxy-4-oxo-4H-chromen-8-yl]-1-methyl-pyrrolidine-2-carboxylic acid] showed a melting point of 295 to 297 °C. `CN1CC[C@@H](c2c(O)cc(O)c3c(=O)cc(-c4ccccc4Cl)oc23)[C@@H]1CN` (racemic) [Example 109, (±)-trans-8-(2-Aminomethyl-1-methyl-pyrrolidin-3-yl)-2-(2-chloro-phenyl)-5,7-dihydroxy-chromen-4-one] gave a melting point of 218 to 219 °C. Compound `CN1CC[C@@H](c2c(O)cc(O)c3c(=O)cc(-c4ccc(N)cc4)oc23)[C@@H]1CO` [Example 94, (+)-trans-2-(4-Amino-phenyl)-5,7-dihydroxy-8-(2-hydroxymethyl-1-methyl-pyrrolidin-3-yl)-chromen-4-one] has a melting point of 172 to 174 °C. With `Cc1cc(C#N)ccc1-c1cc(=O)c2c(O)cc(O)c([C@@H]3CCN(C)[C@H]3CO)c2o1` [Example 60, (+)-trans-4-[5,7-Dihydroxy-8-(2-hydroxymethyl-1-methyl-pyrrolidin-3-yl)-4-oxo-4H-chromen-2-yl]-3-methyl-benzonitrile] the melting point was 145 to 147 °C. Work on `CN1CC[C@@H](c2c(O)cc(O)c3c(=O)cc(-c4ccccc4I)oc23)[C@@H]1CO` [Example 19, (+)-trans-5,7-Dihydroxy-8-(2-hydroxymethyl-1-methyl-pyrrolidin-3-yl)-2-(2-iodo-phenyl)-chromen-4-one] yielded a melting point of 233 to 235 °C. `CN1CC[C@@H](c2c(O)cc(O)c3c(=O)cc(-c4ccccc4Cl)oc23)[C@@H]1CC#N` (racemic) [Example 111, (±)-trans-{3-[2-(2-Chloro-phenyl)-5,7-dihydroxy-4-oxo-4H-chromen-8-yl]-1-methyl-pyrrolidin-2-yl}-acetonitrile] showed a melting point of 107 to 108 °C. `CN1CC[C@@H](c2c(O)cc(O)c3c(=O)cc(-c4ccc(C(F)(F)F)cc4)oc23)[C@@H]1CO` [Example 65, (+)-trans-5,7-Dihydroxy-8-(2-hydroxymethyl-1-methyl-pyrrolidin-3-yl)-2-(4-trifluoromethyl-phenyl)-chromen-4-one] showed a melting point of 235 to 237 °C.
